Source: PMC5218480 (PLoS ONE, 2017)

Test system: MV-4-11 cells
Test: Gene expression microarray analysis (Affymetrix PrimeView) and GSEA
Assay type: cell-based, human
Set-up: RFU PODN (11730768_x_at) / Fold change /veh PODN (11730768_x_at) / RFU LINC00158 (11744669_a_at) / Fold change /veh LINC00158 (11744669_a_at) / RFU DUSP10 (11751237_a_at) / Fold change /veh DUSP10 (11751237_a_at) / RFU ID3 (11757404_x_at) / Fold change /veh ID3 (11757404_x_at) / RFU PLEKHG5 (11737974_s_at) / Fold change /veh PLEKHG5 (11737974_s_at) / RFU LRRC4B (11730491_at) / Fold change /veh LRRC4B (11730491_at) / RFU GIMAP4 (11747438_a_at) / Fold change /veh GIMAP4 (11747438_a_at) / RFU KRT8 (11758183_x_at) / Fold change /veh KRT8 (11758183_x_at) / RFU CNN1 (11734310_a_at) / Fold change /veh CNN1 (11734310_a_at) / RFU VPS37D (11726825_at) / Fold change /veh VPS37D (11726825_at) / RFU C10orf10 (11716522_x_at) / Fold change /veh C10orf10 (11716522_x_at) / RFU KIR2DL2 /// KIR2DL4 /// KIR2DL5A /// KIR2DL5B /// KIR2DS1 /// KIR2DS2 /// KIR2DS3 /// KIR2DS4 /// KIR3DL3 /// KIR3DL3 /// KIR3DS1 (11738374_at) / Fold change /veh KIR2DL2 /// KIR2DL4 /// KIR2DL5A /// KIR2DL5B /// KIR2DS1 /// KIR2DS2 /// KIR2DS3 /// KIR2DS4 /// KIR3DL3 /// KIR3DL3 /// KIR3DS1 (11738374_at) / RFU C1QL1 (11718748_at) / Fold change /veh C1QL1 (11718748_at) / RFU TMPRSS4 (11747572_a_at) / Fold change /veh TMPRSS4 (11747572_a_at) / RFU HAMP (11756126_x_at) / Fold change /veh HAMP (11756126_x_at) / RFU RNFT2 (11725882_a_at) / Fold change /veh RNFT2 (11725882_a_at) / RFU NR4A2 (11747474_a_at) / Fold change /veh NR4A2 (11747474_a_at) / RFU ABCC12 (11746883_a_at) / Fold change /veh ABCC12 (11746883_a_at) / RFU TMEM136 (11760407_x_at) / Fold change /veh TMEM136 (11760407_x_at) / RFU CLDN22 /// WWC2 (11732394_at) / Fold change /veh CLDN22 /// WWC2 (11732394_at) / RFU HLA-DPB1 (11760878_x_at) / Fold change /veh HLA-DPB1 (11760878_x_at) / RFU SPINT1 (11716480_a_at) / Fold change /veh SPINT1 (11716480_a_at) / RFU GAP43 (11754022_s_at) / Fold change /veh GAP43 (11754022_s_at) / RFU A4GNT (11735810_at) / Fold change /veh A4GNT (11735810_at) / RFU PRB3 (11715151_x_at) / Fold change /veh PRB3 (11715151_x_at) / RFU TUBB4B (11761932_at) / Fold change /veh TUBB4B (11761932_at) / RFU CAPN14 (11732068_a_at) / Fold change /veh CAPN14 (11732068_a_at) / RFU TMCC2 (11721928_a_at) / Fold change /veh TMCC2 (11721928_a_at) / RFU IRGQ (11745062_a_at) / Fold change /veh IRGQ (11745062_a_at) / RFU FAM174B (11720279_a_at) / Fold change /veh FAM174B (11720279_a_at) / RFU TMPRSS4 (11748680_a_at) / Fold change /veh TMPRSS4 (11748680_a_at) / RFU FAM212B (11763350_a_at) / Fold change /veh FAM212B (11763350_a_at) / RFU PLEKHG5 (11743358_a_at) / Fold change /veh PLEKHG5 (11743358_a_at) / RFU ZSCAN30 (11745921_a_at) / Fold change /veh ZSCAN30 (11745921_a_at) / RFU CMKLR1 (11741424_a_at) / Fold change /veh CMKLR1 (11741424_a_at) / RFU LOC101060620 /// MAPK8IP1 (11723275_at) / Fold change /veh LOC101060620 /// MAPK8IP1 (11723275_at) / RFU SPTSSB (11747773_x_at) / Fold change /veh SPTSSB (11747773_x_at) / RFU PRSS12 (11739890_at) / Fold change /veh PRSS12 (11739890_at) / RFU BIN1 (11741810_x_at) / Fold change /veh BIN1 (11741810_x_at) / RFU WNT11 (11732464_a_at) / Fold change /veh WNT11 (11732464_a_at) / RFU C10orf10 (11716521_a_at) / Fold change /veh C10orf10 (11716521_a_at) / RFU C5orf56 (11738089_at) / Fold change /veh C5orf56 (11738089_at) / RFU CYB561 (11721691_x_at) / Fold change /veh CYB561 (11721691_x_at) / RFU ANKRD19P (11752326_a_at) / Fold change /veh ANKRD19P (11752326_a_at) / RFU OR2T12 /// OR2T33 /// OR2T8 (11738714_s_at) / Fold change /veh OR2T12 /// OR2T33 /// OR2T8 (11738714_s_at) / RFU VCAN (11748164_a_at) / Fold change /veh VCAN (11748164_a_at) / RFU JSRP1 (11732532_at) / Fold change /veh JSRP1 (11732532_at) / RFU KRTAP10-11 (11738290_x_at) / Fold change /veh KRTAP10-11 (11738290_x_at) / RFU MYO3A (11730013_a_at) / Fold change /veh MYO3A (11730013_a_at) / RFU EBF3 (11725865_a_at) / Fold change /veh EBF3 (11725865_a_at) / RFU CAMK2N1 (11719241_x_at) / Fold change /veh CAMK2N1 (11719241_x_at) / RFU C5orf56 (11738088_a_at) / Fold change /veh C5orf56 (11738088_a_at) / RFU OLFML3 (11715873_a_at) / Fold change /veh OLFML3 (11715873_a_at) / RFU LOC100653217 /// NTM (11731650_a_at) / Fold change /veh LOC100653217 /// NTM (11731650_a_at) / RFU MAPK11 (11762145_a_at) / Fold change /veh MAPK11 (11762145_a_at) / RFU FIZ1 (11724087_x_at) / Fold change /veh FIZ1 (11724087_x_at) / RFU OASL (11726364_x_at) / Fold change /veh OASL (11726364_x_at) / RFU SOX15 (11748057_x_at) / Fold change /veh SOX15 (11748057_x_at) / RFU CD79A (11719716_a_at) / Fold change /veh CD79A (11719716_a_at) / RFU HIST1H1D (11736915_at) / Fold change /veh HIST1H1D (11736915_at) / RFU CASKIN2 (11723855_a_at) / Fold change /veh CASKIN2 (11723855_a_at) / RFU LOC730098 (11760151_x_at) / Fold change /veh LOC730098 (11760151_x_at) / RFU OR4N2 (11742367_at) / Fold change /veh OR4N2 (11742367_at) / RFU PRRT2 (11749266_a_at) / Fold change /veh PRRT2 (11749266_a_at) / RFU SNX32 (11753110_a_at) / Fold change /veh SNX32 (11753110_a_at) / RFU CDHR5 (11726645_a_at) / Fold change /veh CDHR5 (11726645_a_at) / RFU RCAN1 (11760418_a_at) / Fold change /veh RCAN1 (11760418_a_at) / RFU FAM167A (11723789_a_at) / Fold change /veh FAM167A (11723789_a_at) / RFU FAM26E (11764081_at) / Fold change /veh FAM26E (11764081_at) / RFU ISYNA1 (11749810_s_at) / Fold change /veh ISYNA1 (11749810_s_at) / RFU ACY1 (11761880_at) / Fold change /veh ACY1 (11761880_at) / RFU 11764098_at / Fold change /veh 11764098_at / RFU SAMD14 (11745864_x_at) / Fold change /veh SAMD14 (11745864_x_at) / RFU NPB (11741838_a_at) / Fold change /veh NPB (11741838_a_at) / RFU TMPRSS6 (11731388_a_at) / Fold change /veh TMPRSS6 (11731388_a_at) / RFU KRTAP10-2 (11738614_at) / Fold change /veh KRTAP10-2 (11738614_at) / RFU ARHGAP8 /// PRR5-ARHGAP8 (11727945_x_at) / Fold change /veh ARHGAP8 /// PRR5-ARHGAP8 (11727945_x_at) / RFU KRTAP5-7 /// NADSYN1 (11734609_at) / Fold change /veh KRTAP5-7 /// NADSYN1 (11734609_at) / RFU RASL12 (11751679_a_at) / Fold change /veh RASL12 (11751679_a_at) / RFU CDKN2B (11736163_a_at) / Fold change /veh CDKN2B (11736163_a_at) / RFU PRF1 (11729649_at) / Fold change /veh PRF1 (11729649_at) / RFU, ZNF638 /// ZNF638-IT1 / Fold change vs veh, ZNF638 /// ZNF638-IT1 / RFU, PANK3 / Fold change vs veh, PANK3 / RFU, SH3YL1 / Fold change vs veh, SH3YL1 / RFU, ZEB2 / Fold change vs veh, ZEB2 / RFU, NRIP1 / Fold change vs veh, NRIP1 / RFU, PTTG1IP / Fold change vs veh, PTTG1IP / RFU, CAPN2 / Fold change vs veh, CAPN2 / RFU, MED14 / Fold change vs veh, MED14 / RFU, SNORA58 / Fold change vs veh, SNORA58 / RFU, C1orf63 / Fold change vs veh, C1orf63 / RFU, LRRFIP1 / Fold change vs veh, LRRFIP1 / RFU, NDUFAF7 / Fold change vs veh, NDUFAF7 / RFU, SLC12A2 / Fold change vs veh, SLC12A2 / RFU, IBTK / Fold change vs veh, IBTK / RFU, ESF1 / Fold change vs veh, ESF1 / Fold change vs veh, TMEM50B / RFU, TAOK1 / Fold change vs veh, TAOK1 / RFU, ACBD3 / Fold change vs veh, ACBD3 / RFU, TMA16 / Fold change vs veh, TMA16 / RFU, RWDD3 / Fold change vs veh, RWDD3 / RFU, BCAT1 / Fold change vs veh, BCAT1 / RFU, EDEM3 / Fold change vs veh, EDEM3 / RFU, TMEM33 / Fold change vs veh, TMEM33 / RFU, WDR75 / Fold change vs veh, WDR75 / RFU, AHCTF1 / Fold change vs veh, AHCTF1 / RFU, TFRC / Fold change vs veh, TFRC / RFU, ZDHHC17 / Fold change vs veh, ZDHHC17 / RFU, NOM1 / Fold change vs veh, NOM1 / RFU, ARL8B / Fold change vs veh, ARL8B / RFU, ZBTB11 / Fold change vs veh, ZBTB11 / RFU, TAMM41 / Fold change vs veh, TAMM41 / RFU, KIAA1704 /// LOC100996395 / Fold change vs veh, KIAA1704 /// LOC100996395 / RFU, ING1 / Fold change vs veh, ING1 / RFU, TRMT61B / Fold change vs veh, TRMT61B / RFU, FUBP3 / Fold change vs veh, FUBP3 / RFU, TP53 / Fold change vs veh, TP53 / RFU, TNKS2 / Fold change vs veh, TNKS2 / RFU, ZFP14 / Fold change vs veh, ZFP14 / RFU, ACTR2 / Fold change vs veh, ACTR2 / RFU, PPP3R1 / Fold change vs veh, PPP3R1 / RFU, PIK3R1 / Fold change vs veh, PIK3R1 / RFU, HNRNPA1 / Fold change vs veh, HNRNPA1 / RFU, RNF170 / Fold change vs veh, RNF170 / RFU, ZNF28 / Fold change vs veh, ZNF28 / RFU, RNGTT / Fold change vs veh, RNGTT / RFU, OGT / Fold change vs veh, OGT / RFU, BRD1 / Fold change vs veh, BRD1 / RFU, MARS / Fold change vs veh, MARS / RFU, ZNF655 / Fold change vs veh, ZNF655 / RFU, FAHD1 / Fold change vs veh, FAHD1 / RFU, BDP1 / Fold change vs veh, BDP1 / RFU, LRRCC1 / Fold change vs veh, LRRCC1 / RFU, ARID1A / Fold change vs veh, ARID1A / RFU, ZNF146 / Fold change vs veh, ZNF146 / RFU, ZNF330 / Fold change vs veh, ZNF330 / RFU, GPN3 / Fold change vs veh, GPN3 / RFU, C9orf123 / Fold change vs veh, C9orf123 / RFU, N4BP2L2 / Fold change vs veh, N4BP2L2 / RFU, ARFIP1 / Fold change vs veh, ARFIP1 / RFU, FAM179B / Fold change vs veh, FAM179B / RFU, BCL10 / Fold change vs veh, BCL10 / RFU, UHRF1BP1L / Fold change vs veh, UHRF1BP1L / RFU, BET1 / Fold change vs veh, BET1 / RFU, CNOT2 / Fold change vs veh, CNOT2 / RFU, ZNF268 / Fold change vs veh, ZNF268 / Fold change vs veh, ZNF507 / RFU, DGCR2 / Fold change vs veh, DGCR2 / RFU, WDSUB1 / Fold change vs veh, WDSUB1 / Fold change vs veh, HSP90B1 /// MIR3652 / RFU, ADSS / Fold change vs veh, ADSS / RFU, GK / Fold change vs veh, GK / RFU, ZNF148 / Fold change vs veh, ZNF148 / RFU, TAF9 / Fold change vs veh, TAF9 / RFU, SLC1A5 / Fold change vs veh, SLC1A5 / RFU, SLMO2 / Fold change vs veh, SLMO2 / RFU, ABCC4 / Fold change vs veh, ABCC4 / RFU, LOC101060439 /// RAP1B / Fold change vs veh, LOC101060439 /// RAP1B / RFU, RFX7 / Fold change vs veh, RFX7 / RFU, GTPBP10 / Fold change vs veh, GTPBP10 / RFU, CNEP1R1 / Fold change vs veh, CNEP1R1 / RFU, BIVM-ERCC5 /// ERCC5 / Fold change vs veh, BIVM-ERCC5 /// ERCC5 / RFU, ILF3 / Fold change vs veh, ILF3 / RFU 11762660_at / Fold change /veh 11762660_at / RFU VCAN (11757783_s_at) / Fold change /veh VCAN (11757783_s_at) / RFU DDX43 (11728927_at) / Fold change /veh DDX43 (11728927_at) / RFU KRT8 (11758188_x_at) / Fold change /veh KRT8 (11758188_x_at) / RFU NKD1 (11759106_at) / Fold change /veh NKD1 (11759106_at) / RFU SRD5A1 (11742802_a_at) / Fold change /veh SRD5A1 (11742802_a_at) / RFU TPSAB1 /// TPSB2 (11721975_s_at) / Fold change /veh TPSAB1 /// TPSB2 (11721975_s_at) / RFU GSTM3 (11746129_a_at) / Fold change /veh GSTM3 (11746129_a_at) / RFU IL23R (11737362_x_at) / Fold change /veh IL23R (11737362_x_at) / RFU TMEM51 (11727254_a_at) / Fold change /veh TMEM51 (11727254_a_at) / RFU PIWIL2 (11732686_x_at) / Fold change /veh PIWIL2 (11732686_x_at) / RFU ORM1 (11744905_x_at) / Fold change /veh ORM1 (11744905_x_at) / RFU CCDC152 (11743942_at) / Fold change /veh CCDC152 (11743942_at) / RFU ECM1 (11717891_a_at) / Fold change /veh ECM1 (11717891_a_at) / RFU IL23R (11748794_a_at) / Fold change /veh IL23R (11748794_a_at) / RFU TNFAIP8L3 (11732012_x_at) / Fold change /veh TNFAIP8L3 (11732012_x_at) / RFU MBOAT4 (11741988_at) / Fold change /veh MBOAT4 (11741988_at) / RFU 11764193_at / Fold change /veh 11764193_at / RFU TMEM53 (11763286_at) / Fold change /veh TMEM53 (11763286_at) / RFU MAGEB2 (11727129_at) / Fold change /veh MAGEB2 (11727129_at) / RFU TMEM200A (11744735_a_at) / Fold change /veh TMEM200A (11744735_a_at) / RFU CCDC152 (11751479_a_at) / Fold change /veh CCDC152 (11751479_a_at) / RFU FAM211A (11726209_a_at) / Fold change /veh FAM211A (11726209_a_at) / RFU RGS16 (11746705_a_at) / Fold change /veh RGS16 (11746705_a_at) / RFU VCAN (11755009_s_at) / Fold change /veh VCAN (11755009_s_at) / RFU RHOB (11743442_s_at) / Fold change /veh RHOB (11743442_s_at) / RFU RGS16 (11720943_a_at) / Fold change /veh RGS16 (11720943_a_at) / RFU RGS16 (11720944_at) / Fold change /veh RGS16 (11720944_at) / RFU, VPS4B / Fold change vs veh, VPS4B / RFU, CREB1 / Fold change vs veh, CREB1 / RFU, DNAJC13 / Fold change vs veh, DNAJC13 / RFU, GNAQ / Fold change vs veh, GNAQ / RFU, CDK5R1 / Fold change vs veh, CDK5R1 / RFU, ZRANB3 / Fold change vs veh, ZRANB3 / RFU, CUL4A / Fold change vs veh, CUL4A / RFU, CCNY / Fold change vs veh, CCNY / RFU, UFL1 / Fold change vs veh, UFL1 / RFU, COG3 / Fold change vs veh, COG3 / RFU, DIAPH2 / Fold change vs veh, DIAPH2 / RFU, SKA2 / Fold change vs veh, SKA2 / RFU, AFF3 / Fold change vs veh, AFF3 / RFU, LMF1 / Fold change vs veh, LMF1 / RFU, IPO11 / Fold change vs veh, IPO11 / RFU, DFFB / Fold change vs veh, DFFB / RFU, FOXP1 / Fold change vs veh, FOXP1 / RFU, CARD8 / Fold change vs veh, CARD8 / RFU, STRN3 / Fold change vs veh, STRN3 / RFU, ADK / Fold change vs veh, ADK / RFU, RASSF2 / Fold change vs veh, RASSF2 / RFU, WIPF1 / Fold change vs veh, WIPF1 / RFU, LARP1B / Fold change vs veh, LARP1B / RFU, RASA1 / Fold change vs veh, RASA1 / RFU, RB1 / Fold change vs veh, RB1 / RFU, PPFIA1 / Fold change vs veh, PPFIA1 / RFU, MAT2A / Fold change vs veh, MAT2A / RFU, CCT5 / Fold change vs veh, CCT5 / RFU, WDR92 / Fold change vs veh, WDR92 / RFU, CUX1 / Fold change vs veh, CUX1 / RFU, TTC7A / Fold change vs veh, TTC7A / RFU, TMEM135 / Fold change vs veh, TMEM135 / RFU, DEPTOR / Fold change vs veh, DEPTOR / RFU, CPM / Fold change vs veh, CPM / RFU, DNAJB6 / Fold change vs veh, DNAJB6 / RFU, CACNA2D3 / Fold change vs veh, CACNA2D3 / RFU, DTX4 / Fold change vs veh, DTX4 / RFU, TFCP2 / Fold change vs veh, TFCP2 / RFU, GMCL1 /// GMCL1P1 / Fold change vs veh, GMCL1 /// GMCL1P1 / RFU, AEBP2 / Fold change vs veh, AEBP2 / RFU, SNHG1 /// SNORD22 /// SNORD25 /// SNORD26 /// SNORD27 /// SNORD28 /// SNORD29 /// SNORD31 / Fold change vs veh, SNHG1 /// SNORD22 /// SNORD25 /// SNORD26 /// SNORD27 /// SNORD28 /// SNORD29 /// SNORD31 / Fold change (Aza/veh), C12orf56 (ProbeSet 11735607_a_at) / Fold change (ACY-1035/veh), C12orf56 (ProbeSet 11735607_a_at) / Fold change (Aza/veh), FGFR1OP (ProbeSet 11751329_s_at) / Fold change (ACY-1035/veh), FGFR1OP (ProbeSet 11751329_s_at) / Fold change (Aza/veh), VPS36 (ProbeSet 11739960_a_at) / Fold change (ACY-1035/veh), VPS36 (ProbeSet 11739960_a_at) / RFU SYPL1 (11715823_x_at) / Fold change /veh SYPL1 (11715823_x_at) / RFU IGFBP7 (11715501_s_at) / Fold change /veh IGFBP7 (11715501_s_at) / RFU REEP3 (11722064_at) / Fold change /veh REEP3 (11722064_at) / RFU IGLL1 (11728026_x_at) / Fold change /veh IGLL1 (11728026_x_at): dose or concentration left out as unconfirmed
Details: MV-4-11 cells, 48 hours

Nc1ncn([C@@H]2O[C@H](CO)[C@@H](O)[C@H]2O)c(=O)n1 [azacitidine]
RFU IGLL1 (11728026_x_at): 12.85 RFU
